Measurements as given in patent publication EP1379135B1, “FORMULATIONS COMPRISING ENTRAPPED ACTIVE INGREDIENTS AND USES THEREOF” (THE SCRIPPS RESEARCH INSTITUTE, priority 2001, dated 2002).

Columns and labels:
[1] = test system: TNFα induced nitric oxide (NO) production in normal human articular chondrocytes; test: TNFα induced NO production in chondrocytes; format: cell-based
[2] = test system: iNOS protein; test: iNOS protein expression (Western Immunoblot); format: cell-based, human
Method: (§1) Whole cell extracts were prepared from 3 x 10^6 chondrocytes stimulated as described above by lysing the cells on the plate with ice cold lysis buffer (10 mM TrisHCl pH 7.6, 158 mM NaCl, 1 mM EDTA, 0.1% SDS, 1% Triton X-100, leupeptin […], aprotinin 1µg/ml, and 0.5 mM PMSF), which was added immediately before use. The lysates were transferred to Eppendorf tubes and centrifuged at 20,000 g for 30 min at 4 °C. The supernatants were transferred into fresh tubes, and the protein concentration was determined by Bradford assay. Similar amounts of protein were separated by 10% SDS PAGE and transferred to a nitrocellulose filter (Schleicher & Schuell, Keene, NH) by electroblotting. The filter was blocked overnight in 5% milk powder/TBS-T solution and then further incubated with one of the following antibodies: anti-iNOS (C-19, Santa Cruz Biotechnology, Inc., Santa Cruz, CA), anti-COX-2 (Cayman Chemical, Ann Arbor, MI), anti-COX-1 (H-3, Santa Cruz Biotechnology, Inc.), anti-phospho-JNK (phosphoThr 183 /Tyr 185, New England Biolabs, Inc., Beverly, MA), anti-phospho-p38MAP (phospho-Thr […]/Tyr 182, New England Biolabs, Inc.) or anti-phospho-ERK (phosphoThr 180/Tyr 182, New England Biolabs, Inc.) for 2 hrs. […]

[3] = test system: COX-2 protein; test: COX-2 protein expression in IL-1β stimulated chondrocytes (Western Immunoblot); format: cell-based, human
Method: as §1

[4] = test system: COX-2 mRNA; test: COX-2 mRNA expression in IL-1β stimulated chondrocytes (Northern Blot); format: cell-based, human
Method: Total RNA was isolated from 2 x 10^6 chondrocytes stimulated using the STAT-60 reagent (Tel-Test, Friendswood, TX). RNA for each sample was quantified photometrically, and 5 µg was separated on 1.2% agarose, 6% formaldehyde gels. After electrophoresis, the gels were photographed, and the RNA was transferred onto HybondN nylon membranes (BRL, Baithesburg, MD) by capillary blotting. Membranes were air-dried and incubated for 2 hrs at 80°C. Prehybridization was done for 2 hrs at 60°C in 5 x SCC, 1 mM EDTA, 0.2% SDS and 5 x Denhardt solution. Radio-labeled probe was added and hybridization was carried out overnight at 60°C. After hybridization, the filters were rinsed twice in 2 x SSC, 0.1% SDS, washed once in 2 x SCC, 0.1 % SDS at 60°C and once in 0.2 x SCC, 0.1 % SDS at 60°C. The membranes were covered with plastic wrap and exposed with an intensifying screen for 12 hr at -70°C. The probes used for the hybridization were prepared as described earlier (Geng et al., (1993) J. Immunol. 151:6692; Geller et al., (1993) Proc. Natl. Acad. Sci. USA 90:3491).

[5] = test system: COX-1 protein; test: COX-1 protein expression in chondrocytes (Western Immunoblot); format: cell-based, human
Method: as §1

[6] = test system: NF-κB; test: IL-1β-induced nuclear translocation of NF-κB (gel shift of nuclear extracts); format: cell-based, human
Method: Nuclear protein extracts were prepared as follows: 2 x 10^6 chondrocytes were stimulated as indicated. The cells were harvested by trypsinization, washed once with ice cold PBS and lysed in 10 mM Tris-HCl buffer pH 7.5 containing 2 mM MgCl2, 140 mM NaCl, 0.5 mM DTT, 0.05% Triton X-100, 0.5 mM PMSF, leupeptin 1 µg/ml and aprotinin 1 µg/ml. The nuclei were spun down, resuspended in 20 mM HEPES buffer pH 7.9, containing 25% glycerol, 420 mM NaCl, 1.5 mM MgCl2, 0.2 mM EDTA, 0.5 mM DTT, 0.5 mM PMSF, leupeptin 1 µg/ml and aprotinin 1 µg/ml, and rotated at 4°C for 30 minutes. After removal of the nuclear debris by centrifugation, the protein concentration of the lysate was determined by Bradford assay. Equal amounts of the nuclear extracts (2 µg) were incubated for 15 minutes at room temperature with poly-(dI-dC)poly-(dI-dC) (0.1 mg/ml), BSA (1 mg/ml), 1 x […] counts of double-stranded radiolabeled oligodeoxynucleotide containing the NF-κB consensus DNA binding site (sequence: 5'-[…]-3') in 20 mM HEPES buffer pH 7.9 containing 10% glycerol, 420 mM NaCl, 1.5 mM MgCl2, 0.2 mM EDTA, 0.5 mM DTT and 0.5 mM PMSF. For competition experiments, unlabeled NF-κB oligodeoxynucleotide or oligodeoxynucleotide containing the Oct-1 consensus sequence were added at 100-fold molar excess to the binding reactions 10 minutes prior to the addition of radiolabeled NFκB oligodeoxynucleotide. […]

[7] = test system: ERK; test: IL-1β induced MAP kinase activation, ERK (phospho Western blot); format: cell-based, human; conditions: induced by IL-1β
Method: as §1

[8] = test system: p38; test: IL-1β induced MAP kinase activation, p38 (phospho Western blot); format: cell-based, human; conditions: induced by IL-1β
Method: as §1

[9] = Induction of TGFα1 in chondrocytes with IL-1β; format: cell-based, human; conditions: together with IL-1β
[10] = test system: chondrocytes; test: Cell viability, MTT assay; format: cell-based, human; conditions: up to 20 mM

## CC(=O)N[C@H]1C(O)O[C@H](CO)[C@@H](O)[C@@H]1O (stereo partly shown) [GlcNAc, N-acetylglucosamine]
[1]
  TNFα induced nitric oxide (NO) production: inhibit
[2]
  expression of iNOS protein: strongly inhibited
[3]
  expression of COX-2 protein: inhibited
[4]
  expression of COX-2 mRNA: inhibited
[5]
  expression of the constitutively expressed COX-1 protein: did not affect
[6]
  IL-1β-induced nuclear translocation of NF-κB: did not affect
[7]
  ERK MAP kinase activation: does not inhibit
[8]
  p38 MAP kinase activation: does not inhibit
[9]
  induction of TGFα1: synergistic with IL-1β
[10]
  cell viability: Neither GA nor GlcNAc at dosages up to 20 mM affected cell viability
